In ChEMBL document CHEMBL1201862, “PubChem BioAssay data set” (2004):
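Tested at 5 concentrations; 48 h exposure; 96-well plates; endpoints linearly interpolated, else capped at highest concentration. GI50 is the concentration that inhibits growth by half.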 Calls of active or inactive are those of the source. Cut-off read from the data, not from the text of the source: active = GI50 up to about 1.1 µM and inactive = higher. Where a SMILES comes first, the peptide text is derived from it. The star is where a group is joined. Boc = CC(C)(C)OC(=O)*; OSu = O=C1CCC(=O)N1O*

Assays:
Test in all cases: inhibition of tumour cell growth, NCI panel, 48 h
[1] = test system: SF-539
[2] = test system: PC-3
[3] = test system: HCC 2998
[4] = test system: OVCAR-8
[5] = test system: SF-268
[6] = test system: OVCAR-5
[7] = test system: ACHN
[8] = test system: TK-10
[9] = test system: HT-29
[10] = test system: SF-295
[11] = test system: UACC-257
[12] = test system: NCI/ADR-RES
[13] = test system: A498
[14] = test system: NCI-H226
[15] = test system: MDA-MB-231
[16] = test system: KM12
[17] = test system: CAKI-1
[18] = test system: HL-60
[19] = test system: BT-549

Measured: GI50

COC(=O)C1CCCCCCCCCCC12SCCCS2 (stereo not given)
inactive: [1] 25.3 µM | [2] 17.5 µM | [3] 20.9 µM | [4] 23.4 µM | [5] 23 µM | [6] 16.8 µM | [7] 19 µM | [8] 20.1 µM | [9] 32.8 µM | [10] 16.5 µM | [11] 17.5 µM | [12] 20.7 µM | [13] 29.5 µM | [14] 18.6 µM | [15] 21.7 µM | [16] 18.1 µM | [17] 26.3 µM

CSc1ccc(/C=C2\N=C(c3ccccc3)N(c3nc4cc(C)c(C)cc4s3)C2=O)cc1
inactive: [18] 20.9 µM | [1] 21.3 µM | [2] 22.4 µM | [3] 32.1 µM | [4] 20.3 µM | [5] 34.8 µM | [6] 26.2 µM | [7] 24.9 µM | [8] 94.4 µM | [9] 22.2 µM | [10] 34.1 µM | [11] 43.3 µM | [12] 31.3 µM | [15] 24.6 µM | [19] 28.2 µM | [16] 27.4 µM | [17] 53 µM

C=CC(=C)CCC(Br)C(C)(C)Br (stereo not given)
inactive: [18] 17.1 µM | [1] > 100 µM | [2] > 100 µM | [3] > 100 µM | [4] > 100 µM | [5] > 100 µM | [6] > 100 µM | [7] > 100 µM | [8] > 100 µM | [9] > 100 µM | [10] > 100 µM | [11] > 100 µM | [12] > 100 µM | [14] > 100 µM | [15] 4.51 µM | [19] > 100 µM | [16] > 100 µM

O=CC12CCCN1CCC2
inactive: [2] > 100 µM | [3] > 100 µM | [6] > 100 µM | [7] > 100 µM | [8] > 100 µM | [9] > 100 µM | [10] > 100 µM | [11] > 100 µM | [12] > 100 µM | [14] 76.4 µM | [15] > 100 µM | [19] > 100 µM | [17] > 100 µM

N#C/C(=C/c1cccc2ccccc12)C(=O)c1ccccc1
inactive: [18] 19.4 µM | [1] 17.7 µM | [3] 23.6 µM | [4] 33 µM | [6] 23.6 µM | [7] > 10 µM | [8] 35.4 µM | [9] > 100 µM | [10] 20 µM | [11] > 10 µM | [13] 23.1 µM | [14] 17.7 µM | [16] 20.9 µM | [17] 23.9 µM

COC(=O)C(NC(=O)c1ccccc1)c1ccco1 (stereo not given)
inactive: [18] > 100 µM | [1] > 100 µM | [2] > 100 µM | [3] > 100 µM | [4] > 100 µM | [5] > 100 µM | [6] > 100 µM | [7] > 100 µM | [8] > 100 µM | [9] > 100 µM | [10] > 100 µM | [11] > 100 µM | [12] > 100 µM | [13] > 100 µM | [14] > 100 µM | [19] > 100 µM | [16] > 100 µM

N[C@H]1CCC[C@@H](O)C1O (stereo not given in full)
inactive: [18] > 100 µM | [2] > 100 µM | [3] > 100 µM | [4] > 100 µM | [5] > 100 µM | [6] > 100 µM | [7] > 100 µM | [9] > 100 µM | [10] > 100 µM | [11] > 100 µM | [12] > 100 µM | [13] > 100 µM | [15] > 100 µM | [16] > 100 µM | [17] > 100 µM

CC(=O)OC12c3ccccc3-c3ccccc3C1C1C(=O)N(C)C(=O)C12Cl (stereo not given)
inactive: [18] > 10 µM | [1] > 10 µM | [2] > 10 µM | [3] > 10 µM | [4] > 10 µM | [5] > 10 µM | [6] > 10 µM | [7] > 10 µM | [8] > 10 µM | [9] > 10 µM | [10] > 10 µM | [11] > 10 µM | [12] > 10 µM | [13] > 10 µM | [14] > 10 µM | [15] > 10 µM | [16] > 10 µM | [17] > 10 µM

CC(NC(=O)C(NC(=O)OC(C)(C)C)C(C)C)C(=O)NCC(=O)ON1C(=O)CCC1=O (stereo not drawn) (Boc-Val-Ala-Gly-OSu; configuration not given here)
inactive: [1] > 100 µM | [2] > 100 µM | [3] > 100 µM | [4] > 100 µM | [5] > 100 µM | [6] > 100 µM | [7] > 100 µM | [8] > 100 µM | [9] > 100 µM | [10] > 100 µM | [11] > 100 µM | [12] > 100 µM | [14] > 100 µM | [15] > 100 µM | [19] > 100 µM | [16] > 100 µM | [17] > 100 µM
